Assay results: US20050255084A1, “Use of a half-transporter protein of the abcg-family for selecting cells and in gene therapy” (SOLVO BIOTECHNOLOGY, priority 2001, published 2005)
Converted amounts (≈) assume the structure as drawn.

How the values were obtained:
[1] = system: ABCG2-R (wild-type ABCG2); test: Cytotoxicity assay (cell survival after 4 days), wild-type ABCG2; assay type: cell-based; conditions: human, PLB985 cells expressing ABCG2-R (wild-type ABCG2), selected by 10 nM MX
Protocol: (§1) Panel C: Cytotoxicity assay (cell survival after 4 days) of PLB985 cells expressing the ABCG2 variants. • ∘: Control, mock-transduced PLB985s; • Δ: PLB985s expressing ABCG2-R, selected by 10 nM MX; • ◯: PLB985s expressing ABCG2-G, selected by 100 nM MX.
(§2) This assay was performed in 24-well plates, cells seeded at a density of 200,000 cells/well. Cytotoxic drugs were added at the concentrations indicated and the cells were cultured for 4 days at 37° C. Total and live cell numbers were determined by flow cytometry after the addition of 2 μg/ml propidium-iodide, to identify dead cells.

[2] = Cytotoxicity assay (cell survival after 4 days), vector control; assay type: cell-based; conditions: human, mock-transduced (vector control) PLB985 cells
Protocol: as §1, §2

ABCG2-G (R482G ABCG2) = test: Cytotoxicity assay (cell survival after 4 days), R482G ABCG2; assay type: cell-based; conditions: human, PLB985 cells expressing ABCG2-G (R482G ABCG2), selected by 100 nM MX
Protocol: as §1, §2

ABCG2-G [3] = target: T1, ABCG2-G (Homo sapiens, UniProt Q9UNQ0, R482G); conditions: 10 μM FTC, 5 μM MX; transduced cells pre-selected with 10 nM MX
T1 sequence (Q9UNQ0 whole entry R482G): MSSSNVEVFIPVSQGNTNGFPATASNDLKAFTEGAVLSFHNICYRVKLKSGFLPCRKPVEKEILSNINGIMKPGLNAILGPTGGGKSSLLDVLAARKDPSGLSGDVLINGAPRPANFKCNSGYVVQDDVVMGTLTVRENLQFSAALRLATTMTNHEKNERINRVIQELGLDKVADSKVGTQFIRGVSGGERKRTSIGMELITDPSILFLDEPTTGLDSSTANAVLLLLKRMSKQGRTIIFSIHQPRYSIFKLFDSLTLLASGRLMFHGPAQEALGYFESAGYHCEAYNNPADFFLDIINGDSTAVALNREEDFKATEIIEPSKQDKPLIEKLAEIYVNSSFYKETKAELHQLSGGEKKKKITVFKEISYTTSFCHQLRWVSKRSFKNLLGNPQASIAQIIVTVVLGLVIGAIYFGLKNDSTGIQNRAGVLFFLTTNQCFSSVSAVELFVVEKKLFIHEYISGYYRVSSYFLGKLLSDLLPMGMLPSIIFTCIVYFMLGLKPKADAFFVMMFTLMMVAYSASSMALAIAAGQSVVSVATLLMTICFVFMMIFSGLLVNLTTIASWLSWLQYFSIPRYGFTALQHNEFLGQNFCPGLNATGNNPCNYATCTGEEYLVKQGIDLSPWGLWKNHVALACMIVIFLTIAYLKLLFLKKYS
Protocol: (§3) Functional detection of ABCG2 expression was evaluated with a modified MX uptake assay of Robey et al. (Robey et al., 2001). Cells were suspended in phenol red-free Hank's balanced salt solution, with additional pH stabilization by 20 mM phosphate buffer. Aliquots of the suspension, containing 3×10^5 cells, were incubated with or without the addition of 5 μM MX, and also with 5 μM MX+10 μM FTC, a specific inhibitor of ABCG2 (Rabindran et al., 2000; van Loevezijn et al., 2001). After one hour incubation at 37° C., the cells were washed with ice-cold medium, resuspended in ice-cold medium containing 21 µg/ml propidium-iodide, and stored on ice until analysis by flow cytometry. Cellular MX values were determined at 635 nm excitation/661 nm emission wavelengths.

ABCG2-G [4] = target: T1, ABCG2-G; conditions: 10 μM FTC, 5 μM MX; ABCG2-G cells selected by 100 nM MX
Protocol: (§4) Panel B: Flow cytometry detection of mitoxantrone uptake (dotted lines: autofluorescence, solid thick lines: MX fluorescence, solid thin lines: MX fluorescence in the presence of the ABCG2-inhibitor, FTC). Part 1: Mock-transduced PLB985s; Part 2: PLB985s expressing ABCG2-R, selected by 10 nM MX; Part 3: PLB985s expressing ABCG2-G, selected by 100 nM MX.
as §3

ABCG2-R = ABCG2-R (Homo sapiens, UniProt Q9UNQ0); conditions: 10 μM FTC, 5 μM MX; ABCG2-R cells selected by 10 nM MX
ABCG2-R, sequence (Q9UNQ0 whole entry): as the sequence (Q9UNQ0 whole entry R482G) above, with G482R counted along it
Protocol: as §4, §3

[5] = system: mock-transduced PLB985 X-CGD cells; test: Mitoxantrone uptake assay, mock-transduced cells; assay type: cell-based, human; conditions: 10 μM FTC, 5 μM MX
Protocol: Cells were suspended in phenol red-free Hank's balanced salt solution, with additional pH stabilization by 20 mM phosphate buffer. Aliquots of the suspension, containing 3×10^5 cells, were incubated with or without the addition of 5 μM MX, and also with 5 μM MX+10 μM FTC, a specific inhibitor of ABCG2 (Rabindran et al., 2000; van Loevezijn et al., 2001). After one hour incubation at 37° C., the cells were washed with ice-cold medium, resuspended in ice-cold medium containing 21 g/ml propidium-iodide, and stored on ice until analysis by flow cytometry. Cellular MX values were determined at 635 nm excitation/661 nm emission wavelengths.

[6] = system: mouse X-CGD KO -/- bone marrow cells; test: Flow cytometry of gp91phox expression in selected mouse bone marrow cells; assay type: cell-based; conditions: 5 days selection on 5 nM or 10 nM MX; SPsAGS transduced BM cells
Protocol: (§5) Gp91^phox expression was measured by flow cytometry (Becton Dickinson FACS Calibur) by using the 7D5 antibody (provided by M. Nakamura (Nakamura et al., 1987) and phycoerythrin-labeled anti-mouse secondary antibody (GAM-PE, 250 times dilution, Sigma).
(§6) Drug selection of the transduced cells, cytotoxic assay, immunodetection of gp91^phox, nitroblue tetrazolium test (NBT) were performed similar as in human CD34+ cells except using murine cytokines. In the colony assay 10 000 cells were plated in semisolid medium containing 0, 5 and 10 nM MX.

[7] = system: transduced PLB985 X-CGD cells; test: Flow cytometry of gp91phox expression after drug selection; assay type: cell-based, human; conditions: 10 nM MX selection for four days; 40-48% before selection
Protocol: (§7) Transduced PLB985 cells were selected by stepwise increases in mitoxantrone or doxorubicin (DOX; other name: adriamycin) concentrations. Selection was started 5 days (in some cases: 7 days) after transduction; each drug concentration was applied for four days (in early experiments: 8 days). CD34+ cells were selected similarly but were first selected on day two after transduction.
as §5

[8] = system: mouse X-CGD KO -/- bone marrow cells; test: Colony assay from mouse bone marrow cells; assay type: cell-based; conditions: 5 nM or 10 nM MX in semisolid medium
Protocol: In the colony assay 10 000 cells were plated in semisolid medium containing 0, 5 and 10 nM MX.

[9] = system: human cord blood CD34+ cells; test: Suspension culture granulocyte differentiation with MX selection; assay type: cell-based; conditions: 5 nM MX selection
Description: as §7
Cell differentiation was induced by 0.5% dimethyl-formamide (DMF) in order to obtain granulocytes. In order to follow granulocyte differentiation, cells were labelled with monoclonal anti-CD11b/RPE antibody (Dako, Denmark), and staining was determined by flow cytometry. For the induction of differentiation in the case of normal CD34+ cells, both liquid suspension cultures and clonogenic progenitor assays were used. For suspension culture, fresh media, containing cytokines +G-CSF (50 ng/ml) were added to the cells 24 hours after transduction, and then the cells were incubated for 12-14 days at 37° C.

[10] = system: human cord blood CD34+ cells; test: Colony-forming cell assay; assay type: cell-based; conditions: 5 nM MX
Protocol: In the colony-forming cell assay the cells were plated at a concentration of 250 cells/ml and 1250 cells/ml in Iscove's medium, containing 0.9% methylcellulose, 30% FCS, 1% bovine serum albumin, 1.4×10^−5M dithiothreitol, 5 ng/ml human recombinant IL-3, 25 ng/ml SCF, 10 ng/ml GM-CSF, 2 ng/ml G-CSF and 2U/ml erythropoietin, in the presence or absence of 5 nM mitoxantrone. After 14 days of incubation at 37° C., the colony forming cells were counted.

[11] = system: mouse X-CGD KO -/- bone marrow cells; test: Cytotoxicity assay on mouse bone marrow cells; assay type: cell-based
Protocol: FIG. 8. Panel A Cytotoxicity assay (cell survival after four days) on transduced mouse X-CGD KO −/− bone marrow cells • ♦Control, non transduced cells • ▪Cells tranduced by SPsAGS vector carrying cDNA of ABCG2-G, unselected, • ▴Cells tranduced by SPsATS vector carrying cDNA of ABCG2-T, unselected.
as §2, §6

| SMILES | IC50 at 4 days [1] [µg/mL] | IC50 at 4 days [2] [µg/mL] | IC50 at 4 days (ABCG2-G (R482G ABCG2)) [µg/mL] | sensitivity of MX uptake to the inhibitor (ABCG2-G [3]) | reversal of MX extrusion (ABCG2-G [4]) | reversal of MX extrusion (ABCG2-R) | effect on MX uptake [5] | gp91phox-positive cells after selection [6] [%] | ratio of gp91phox-expressing cells after selection [7] | colony formation ([8]; ABCG2-G transduced BM cells) | decrease of CFC number ([8]; ABCG2-T transduced BM cells) | colony formation ([8]; non-transduced BM cells) | level of CD15+ cells after selection ([9]; ABCG2-G transduced CD34+ cells) | fate of mock-transduced cells in suspension culture ([9]; mock-transduced CD34+ cells) | decrease of CFC number ([10]; ABCG2-G transduced CD34+ cells) | colony formation ([10]; mock-transduced CD34+ cells) | survival of cells ([11]; 5 nM or more mitoxantron, non-transduced control BM cells) | transduced cells resistant to MX (surviving cells) ([11]; 5 or 10 nM mitoxantron, SPsAGS or SPsATS transduced, unselected BM cells) |
| --- | --- | --- | --- | --- | --- | --- | --- | --- | --- | --- | --- | --- | --- | --- | --- | --- | --- | --- |
| COc1cccc2c1C(=O)c1c(O)c3c(c(O)c1C2=O)C[C@@](O)(C(=O)CO)C[C@@H]3O[C@H]1C[C@H](N)[C@H](O)[C@H](C)O1 [ADR, doxorubicin] | ~0.02 (≈ 0.0368 µM) | ~0.008 (≈ 0.0147 µM) | ~0.25 (≈ 0.46 µM) |  |  |  |  |  |  |  |  |  |  |  |  |  |  |  |
| COc1ccc2c3c([nH]c2c1)[C@H](C=C(C)C)N1C(=O)[C@@H]2CCCN2C(=O)[C@@H]1C3 [FTC, Fumitremorgin C] |  |  |  | fully sensitive | fully reversible | fully reversible | no effect |  |  |  |  |  |  |  |  |  |  |  |
| O=C1c2c(O)ccc(O)c2C(=O)c2c(NCCNCCO)ccc(NCCNCCO)c21 [MX, mitoxantrone] | 0.03 (≈ 0.0675 µM) | ~0.01 (≈ 0.0225 µM) | 0.075 (≈ 0.169 µM) |  |  |  |  | > 80 | over 90% | hardly formed any | about 80% | did not form colonies | unchanged level of CD15+ cells | eliminated | about 50% | did not form colonies | all non-transduced control cells died | 15-20% |
